# Experimental data reported in patent US20250127913A1, “BIFUNCTIONAL FOLATE RECEPTOR BINDING COMPOUNDS” (LYCIA THERAPEUTICS, INC., priority 2021, published 2025).
# Read-outs that look alike come from different tables or passages of the source.
# Key:
# FOLR2 = FOLR2 (Homo sapiens (Human), UniProt P14207); experiment: SPR binding kinetics of compounds to folate receptor (FOLR2 immobilized on CM5 chip)
# Description: A Biacore 8K+ was used to measure the association and dissociation rates of example compounds to FOLR2 (Acro Biosystems, Cat: F02-H5223-100 μg). Briefly, FOLR2 was reconstituted according to the manufacture's instructions to 200 μg/mL. Both the active and reference surfaces of a Cytiva CM5 Series S Sensor Chip were activated with a 1:1 mixture of 400 mM EDC and 100 mM NHS for 420 s at 10 μL/min. 25 μg/mL FOLR2 diluted in Sodium Acetate pH 5.5 was injected on the active channel (Flow Cell 2) for 420 s at 10p/min. Both the reference and active surfaces were then capped with 1M ethanolamine, pH 8.5 for 420 s, achieving an immobilization level of ˜4200 RU. Example compounds were serially diluted 1:1 in running buffer (10 mM HEPES, 150 mM NaCl, 0.05% T20, pH 7.5, 2% DMSO) from 100 nM to 3.125 nM and flowed over the active and reference surfaces for 120 s, and then allowed to dissociate in running buffer for 600 s, at 30 uL/min. The FOLR2 immobilized active surface and the reference surface were regenerated with a 30 s pulse of Sodium Acetate pH 5.5 at 30 μL/min. Sensorgrams were solvent corrected, double-referenced, and the data fitted and analyzed in Biacore Insight Evaluation Software Version 3.0.11.15423.
# TNFα trimer = TNFα trimer (Homo sapiens, UniProt P01375); experiment: SPR binding kinetics of compounds to TNFα trimer; conditions: for Kd: class symbols; for koff: read-out: kd
# TNFα trimer, sequence (P01375 77-233 limits assumed): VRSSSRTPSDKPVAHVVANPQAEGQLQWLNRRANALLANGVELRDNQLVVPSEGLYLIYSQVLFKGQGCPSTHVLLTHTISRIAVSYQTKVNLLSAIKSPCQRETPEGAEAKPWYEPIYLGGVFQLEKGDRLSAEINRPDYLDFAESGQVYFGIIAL
# Description: Streptavidin 100 μg/mL Streptavidin (Invitrogen Cat #: 434302) diluted in 10 mM sodium acetate, pH 4.5) was immobilized to both the reference and active surfaces as described in Example 51. The surfaces were conditioned with three injections of running Buffer (10 mM HEPES, 150 mMNaCl, 0.05% T20, pH 7.5, 2% DMSO) at a flow rate of 10 μL/min, Contact time: 60 s. Flow rate: 10 μL/min. The active surface was treated with biotinylated linked TNFα trimer 20 μg/mL diluted in running buffer at a flow rate of 5 μL/min contact time: 600 s, yielding a final response of ˜3000 RU. Example compounds were then serially diluted 1:1 in running buffer (10 mM HEPES, 150 mM NaCl, 0.05% T20, pH 7.5, 2% DMSO) from 30 uM to 937.5 nM and flowed over the active and reference surfaces from lowest concentration to greatest concentration in the single-cycle kinetics format, and then allowed to dissociate in running buffer for 7200 s, at 30 μL/min. Sensorgrams were solvent corrected, double-referenced, and the data fitted and analyzed in Biacore Insight Evaluation Software Version 3.0.11.15423.
# THP-1 cells = experiment: Compound mediated uptake of TNFα-pHrodo in THP-1 cells (flow cytometry); type: cell-based; set-up: key to Uptake in THP1 cells (run) 2 / Uptake in THP1 cells (run) 3 / Uptake in THP1 cells (run) 4: + = ΔMFI less than that of I-17; ++ = ΔMFI ≈ to that of I-17; +++ = ΔMFI greater than that of I-17; conditions: ΔMFI compared with I-17, uptake at 10 μM
# Description: THP-1 cells, a monocytic leukemia cell line that endogenously express folate receptor beta, were used as a model system to measure example compound stimulated uptake of in-house produced TNFα conjugated to the pH sensitive fluorescent dye pHrodo green (ThermoFisher Scientific #P35369).
# THP-1 cells were maintained in RPMI (Gibco #61870143) with 10% v/v FBS (VWR #89510-188) with 2 mM L-alanyl-L-glutamine dipeptide, 100 units/ml penicillin and 100 μg/ml streptomycin (Gibco #15140148). Cells were pelleted, resuspended in folate-free RPMI (Gibco #27016021) and seeded at 50,000 cells per well of a 96 well plate. Example compound was added to each well as a log 2 dilution series ranging from 20 μM to 125 nM final concentration. Cells were incubated for 24 hrs and washed/resuspended in phosphate buffered saline (pH 7.4) with 1% w/v BSA. Uptake was measured using a Novocyte Advanteon Flow Cytometer (Agilent Technologies) with the […] and FITC detection configuration.
# [1] = system: THP-1 cells overexpressing FOLR2; experiment: LYTAC mediated uptake of TNFα-Alexa647 in THP-1 WT / FOLR2 overexpressing cells (ΔMFI); type: cell-based; set-up: New-uptake 100 nM-% Example 46 / New-uptake 10 nm-% Example 46: unit not given here; conditions: relative to Example 46 as printed (I-92 = 1.00)
# Description: Hetero-bifunctional small molecule LYTACs consisting of a TNFα binding moiety, linker and folate receptor binding moiety were tested to determine if folate receptor can internalize TNFα. THP-1 cells overexpressing FOLR2 were generated by stable transduction with lentivirus encoding FOLR2-IRES-GFP. THP-1 WT and FOLR2 overexpressing cells were maintained in RPMI (Gibco #61870143) with 10% v/v FBS (VWR #89510-188) with 2 mM L-alanyl-L-glutamine dipeptide, 100 units/ml penicillin and 100 μg/ml streptomycin (Gibco #27016021). Stable FOLR2 over-expression cells were mixed at a 50:50 ratio with WT THP-1 cells and seeded in a 96 well plate at 50,000 cells in 100 μl folate-free RPMI (Gibco […]) with 10% v/v FBS, 2 mM L-alanyl-L-glutamine dipeptide, 100 units/ml penicillin and 100 μg/ml streptomycin. In a separate 96 well plate, TNFα/folate hetero-bifunctional small molecules were mixed with unmodified TNFα conjugated with Alexa647 by non-specific lysine chemistry. Small molecule LYTACs at a concentration of 600 nM (2× final concentration) in 100 μl folate-free RPMI+10% FBS were incubated at room temperature for 30 mins. The immune complex was serially diluted 3-fold to produce a dose response range from 300 nM-0.137 nM (final concentration). The TNFα/LYTAC complex mixture was transferred to the plate containing a 50:50 mixture of THP1 WT and FOLR2 over expressing cells and incubated for 2 h at 37° C. with 5% C02. Uptake in WT and FOLR2 overexpressing cells was evaluated by flow cytometry by comparing the median fluorescence intensity of […] in the GFP negative (WT) and GFP positive (FOLR2) populations and was quantified as the difference between the mean fluorescence intensities in the APC channel for the GFP positive and GFP negative populations (ΔMFI).
# TNFα = TNFα (Homo sapiens (Human), UniProt P01375); experiment: TNFα binding assay (time-resolved FRET, biotinylated TNFα); conditions: 1 nM biotinylated TNFα, 80 nM probe, 16 hr incubation; read-out: TNF-HTRF-biotin
# TNFα, sequence (P01375 77-233): as the sequence (P01375 77-233 limits assumed) above
# Outline: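 Time-resolved FRET displacement of 80 nM acceptor probe from 1 nM biotinylated TNFα with 0.5 nM streptavidin-Tb in 20 mM Hepes pH 7.5, 10 mM MgCl2, 0.015% Tween-20, 0.05 mg/ml BSA, 2% DMSO. Read (ex 340, em 490/520 nm) after 16 hr. Duplicate dose responses normalized to DMSO and 100 nM reference inhibitor; IC50 by 4-parameter fit.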
# folate receptor beta = folate receptor beta (Homo sapiens (Human), UniProt P14207); experiment: Folate receptor binding assay (fluorescence polarization); conditions: 2.5 nM folate receptor beta, 2 nM FR-Cy probe, 2 hr incubation; read-out: FOLR2-FP
# folate receptor beta, sequence (P14207 17-255): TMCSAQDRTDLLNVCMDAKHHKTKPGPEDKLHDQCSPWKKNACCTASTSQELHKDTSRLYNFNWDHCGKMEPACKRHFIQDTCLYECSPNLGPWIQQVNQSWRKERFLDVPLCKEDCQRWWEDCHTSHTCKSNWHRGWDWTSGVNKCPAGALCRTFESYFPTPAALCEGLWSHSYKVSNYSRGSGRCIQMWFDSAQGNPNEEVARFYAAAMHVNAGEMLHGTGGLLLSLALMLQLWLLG
# Outline: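 Fluorescence polarization competition with 2 nM folate–Cy5 probe and 2.5 nM receptor in 20 mM Hepes pH 7.5, 250 mM NaCl, Tween-20, 1% DMSO; 3-fold dilutions, 2 h incubation, ex 620/em 688 nm. Duplicates normalized to DMSO (high) and 1 μM folic acid (low); IC50 from 4-parameter fit.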
# FOLR2, sequence (P14207 17-255): as above
SMILES,Kd (FOLR2) [nM],Kd (TNFα trimer) [nM],koff (TNFα trimer) [s⁻¹],Uptake in THP1 cells (run) 2 (THP-1 cells),Uptake in THP1 cells (run) 3 (THP-1 cells),Uptake in THP1 cells (run) 4 (THP-1 cells),"koff (TNFα trimer; SPR single cycle kinetics, TNFalpha trimer immobilized) [s⁻¹]",New-uptake 10 nm-% Example 46 ([1]; 10 nM compound),New-uptake 100 nM-% Example 46 ([1]; 100 nM compound),IC50 (TNFα) [nM],IC50 (folate receptor beta) [nM]
"Cc1nc2cc(F)c(-c3cnc(OCCCCCn4cc(COCCOCCNC(=O)CC[C@H](NC(=O)c5ccc(NCc6cnc7nc(N)nc(O)c7n6)cc5)C(=O)O)nn4)nc3)nc2c(N[C@H](C)c2cc(C#N)ccc2F)c1Cl [Compound I-16, N2-(4-(((2-amino-4-hydroxypteridin-6-yl)methyl)amino)benzoyl)-N5-(2-(2-((1-(5-((5-(7-chloro-8-((I-1-(5-cyano-2-fluorophenyl)ethyl)amino)-3-fluoro-6-methyl-1,5-naphthyridin-2-yl)pyrimidin-2-yl)oxy)pentyl)-1H-1,2,3-triazol-4-yl)methoxy)ethoxy)ethyl)-L-glutamine]",0.3,< 100,5.81e-05,+++,+++,++,,,,,
"Cc1nc2cc(F)c(-c3cnc(OCCCCCn4cc(COCCOCCOCCOCCNC(=O)CC[C@H](NC(=O)c5ccc(NCc6cnc7nc(N)nc(O)c7n6)cc5)C(=O)O)nn4)nc3)nc2c(N[C@H](C)c2cc(C#N)ccc2F)c1Cl [Compound I-17, (S)-18-(4-(((2-amino-4-hydroxypteridin-6-yl)methyl)amino)benzamido)-1-(1-(5-((5-(7-chloro-8-((I-1-(5-cyano-2-fluorophenyl)ethyl)amino)-3-fluoro-6-methyl-1,5-naphthyridin-2-yl)pyrimidin-2-yl)oxy)pentyl)-1H-1,2,3-triazol-4-yl)-15-oxo-2,5,8,11-tetraoxa-14-azanonadecan-19-oic acid]",,< 1000,,++,++,+++,,,,,
"Cc1nc2ccc(-c3cnc(OCCOCCn4cc(COCCOCCOCCOCCNC(=O)CC[C@H](NC(=O)c5ccc(NCc6cnc7nc(N)nc(O)c7n6)cc5)C(=O)O)nn4)nc3)cc2n1Cc1ccccc1OC(F)F [Compound I-24, (S)-18-(4-(((2-amino-4-hydroxypteridin-6-yl)methyl)amino)benzamido)-1-(1-(2-(2-((5-(1-(2-(difluoromethoxy)benzyl)-2-methyl-1H-benzo[d]imidazol-6-yl)pyrimidin-2-yl)oxy)ethoxy)ethyl)-1H-1,2,3-triazol-4-yl)-15-oxo-2,5,8,11-tetraoxa-14-azanonadecan-19-oic acid]",0.4,< 5000,,,+,+,,,,,
"Nc1nc(O)c2nc(CNc3ccc(C(=O)N[C@@H](CCC(=O)NCCOCCOCCOCCOCc4cn(CCCCCOc5ccc(-c6ccc7nc(COc8cccc(N9CCCC9=O)c8)n(Cc8ccccc8OC(F)F)c7c6)cn5)nn4)C(=O)O)cc3)cnc2n1 [Compound I-25, (S)-18-(4-(((2-amino-4-hydroxypteridin-6-yl)methyl)amino)benzamido)-1-(1-(5-((5-(1-(2-(difluoromethoxy)benzyl)-2-((3-(2-oxopyrrolidin-1-yl)phenoxy)methyl)-1H-benzo[d]imidazol-6-yl)pyridin-2-yl)oxy)pentyl)-1H-1,2,3-triazol-4-yl)-15-oxo-2,5,8,11-tetraoxa-14-azanonadecan-19-oic acid]",0.5,< 100,,+,+++,++,3.65e-06,,,,
"Cc1nc2ccc(-c3cnn(CCCCCCn4cc(COCCOCCOCCOCCNC(=O)CC[C@H](NC(=O)c5ccc(NCc6cnc7nc(N)nc(O)c7n6)cc5)C(=O)O)nn4)c3)cn2c1Cc1cc(Cl)ccc1Cl [Compound I-26, (S)-18-(4-(((2-amino-4-hydroxypteridin-6-yl)methyl)amino)benzamido)-1-(1-(6-(4-(3-(2,5-dichlorobenzyl)-2-methylimidazo[1,2-a]pyridin-6-yl)-1H-pyrazol-1-yl)hexyl)-1H-1,2,3-triazol-4-yl)-15-oxo-2,5,8,11-tetraoxa-14-azanonadecan-19-oic acid]",0.2,< 5000,,+++,+,+,,,,,
"Cc1nc2cc(F)c(-c3cnc(N4CCN(C(=O)COCCn5cc(CN(CCO)CCOCCOCCOCCNC(=O)CC[C@H](NC(=O)c6ccc(NCc7cnc8nc(N)nc(O)c8n7)cc6)c6nn[nH]n6)nn5)CC4)nc3)nc2c(N[C@H](C)c2cc(C#N)ccc2F)c1Cl [Compound I-80, 4-(((2-amino-4-hydroxypteridin-6-yl)methyl)amino)-N—((S)-3-((1-(2-(2-(4-(5-(7-chloro-8-(((R)-1-(5-cyano-2-fluorophenyl)ethyl)amino)-3-fluoro-6-methyl-1,5-naphthyridin-2-yl)pyrimidin-2-yl)piperazin-1-yl)-2-oxoethoxy)ethyl)-1H-1,2,3-triazol-4-yl)methyl)-1-hydroxy-16-oxo-19-(2H-tetrazol-5-yl)-6,9,12-trioxa-3,15-diazanonadecan-19-yl)benzamide]",,,,,,,,0.89,1.02,36,12
